From patent US20100280268A1, “H[…] RESOLVED FL[…] TEST SYSTEM” (priority 2006, published 2010)
pIC50: −log10 of the molar value. Ends that are not written are not given here.

Target: T1, HIV six-helix bundle of gp41 (IQN36 / C34) (Human immunodeficiency virus type 1 group M subtype B, UniProt P04578)
T1 construct: made in house; host or cells: chemical peptide synthesis, no expression host
Assay: HIV-FRET IQN36/C34 homogeneous time resolved fluorescence test system (6-helix bundle formation)
Format: binding, Human Immunodeficiency Virus (HIV-1)
Description: All reagents were dissolved in 100 mM Hepes buffer pH 7.2. Test compounds were serially diluted and then added to 384-well plates. A final concentration of 10 nM S-APC and 100 nM IQN36-biotin were mixed in tubes, incubated for 30 min at room temperature and then added to well containing test compound. The compound/S-APC/IQN36-biotin mixture was incubated for another 2 hours at room temperature.

| Compound | pIC50 |
| --- | --- |
| COC(=O)c1cc(Cc2cc(Cc3ccc(NS(=O)(=O)c4ccc(C)cc4)c(C(=O)O)c3)cc(C(=O)O)c2NS(=O)(=O)c2ccc(C)cc2)ccc1NS(=O)(=O)c1ccc(C)cc1 [Compound 1] | 5.49 |
| Cc1ccc(S(=O)(=O)Nc2ccc(Oc3ccc(NS(=O)(=O)c4ccc(C)cc4)c(C(=O)O)c3)cc2OCc2ccccc2)cc1 [Compound 2, 5-[3-Benzyloxy-4-(toluene-4-sulfonylamino)-phenoxy]-2-(toluene-4-sulfonylamino)-benzoic acid] | 5.57 |
| Cc1ccc(S(=O)(=O)Nc2ccc(Oc3ccc4c(c3)CCCN4S(=O)(=O)c3ccc(C)cc3)cc2C(=O)O)cc1 [Compound 3, 2-(4-methylphenylsulfonamino)-5-[1-(toluene-4-sulfonyl)-1,2,3,4-tetrahydro-quinolin-6-yloxy]-benzoic acid] | 5.54 |
| CCCCCCN(c1ccc(Oc2ccc(NS(=O)(=O)c3ccc(C)cc3)c(C(=O)O)c2)cc1)S(=O)(=O)c1ccc(C)cc1 [Compound 4, 5-{4-[Hexyl-(toluene-4-sulfonyl)-amino]-phenoxy}-2-(4-methylphenylsulfonamino)-benzoic acid] | 5.35 |
| CCCCCOc1cc(Oc2ccc(NS(=O)(=O)c3ccc(C)cc3)c(C(=O)O)c2)ccc1NS(=O)(=O)c1ccc(C)cc1 [Compound 5, 5-[3-pentyloxy-4-(toluene-4-sulfonylamino)-phenoxy]-2-(toluene-4-sulfonylamino)-benzoic acid] | 5.46 |
| Cc1ccc(S(=O)(=O)Nc2ccc(Oc3ccc(NS(=O)(=O)c4ccc(C)cc4)c(-c4ccccc4)c3)cc2C(=O)O)cc1 [Compound 6, 2-(Toluene-4-sulfonylamino)-5-[6-(toluene-4-sulfonylamino)-biphenyl-3-yloxy]-benzoic acid] | 5.50 |
| Cc1ccc(S(=O)(=O)Nc2ccc(Oc3ccc(NS(=O)(=O)c4ccc(C)cc4)c(C(=O)O)c3)cc2OCC(C)C)cc1 [Compound 7, 5-[3-Isobutoxy-4-(toluene-4-sulfonylamino)-phenoxy]-2-(toluene-4-sulfonylamino)-benzoic acid] | 5.49 |
| Cc1ccc(S(=O)(=O)Nc2ccc(Oc3ccc(NS(=O)(=O)c4ccc(C)cc4)c(C(=O)O)c3)cc2NCc2ccccc2)cc1 [Compound 8, 5-[3-Benzylamino-4-(toluene-4-sulfonylamino)-phenoxy]-2-(toluene-4-sulfonylamino)-benzoic acid] | 5.64 |
| CCCCNc1cc(Oc2ccc(NS(=O)(=O)c3ccc(C)cc3)c(C(=O)O)c2)ccc1NS(=O)(=O)c1ccc(C)cc1 [Compound 9, 5-[3-Butylamino-4-(toluene-4-sulfonylamino)-phenoxy]-2-(toluene-4-sulfonylamino)-benzoic acid] | 5.74 |
| Cc1ccc(S(=O)(=O)Nc2ccc(Oc3ccc(NS(=O)(=O)c4ccc(C)cc4)c(N(C)Cc4ccccc4)c3)cc2C(=O)O)cc1 [Compound 10, 5-[3-(Benzyl-methyl-amino)-4-(toluene-4-sulfonylamino)-phenoxy]-2-(toluene-4-sulfonylamino)-benzoic acid] | 5.58 |
| CCNc1cc(Oc2ccc(NS(=O)(=O)c3ccc(C)cc3)c(C(=O)O)c2)ccc1NS(=O)(=O)c1ccc(C)cc1 [Compound 11, 5-[3-Ethylamino-4-(toluene-4-sulfonylamino)-phenoxy]-2-(toluene-4-sulfonylamino)-benzoic acid] | 5.61 |
| Cc1ccc(S(=O)(=O)Nc2ccc(Oc3ccc(NS(=O)(=O)c4ccc(C)cc4)c(C(=O)O)c3)cc2Cc2ccccc2)cc1 [Compound 12, 5-[3-Benzyl-4-(toluene-4-sulfonylamino)-phenoxy]-2-(toluene-4-sulfonylamino)-benzoic acid] | 5.68 |
| CNc1cc(Oc2ccc(NS(=O)(=O)c3ccc(C)cc3)c(C(=O)O)c2)ccc1NS(=O)(=O)c1ccc(C)cc1 [Compound 13, 5-[3-Methylamino-4-(toluene-4-sulfonylamino)-phenoxy]-2-(toluene-4-sulfonylamino)-benzoic acid] | 5.57 |
| NFYDPLVFPSDEFDASISQVNEKINQSLAFIRKSDELLHNVNAGK [Compound C45, reference compound] | < 5.00 |
